According to US20150071856A1, “ANTAGONISTIC PEPTIDES FOR FRIZZLED-1 AND FRIZZLED-2” (Universiteit Maastricht, priority 2013, published 2015):
“Also recorded” adds a separate entry of the source. Residues, ends and D or L forms follow the SMILES beside them.

Tests used:
hFzd-4 = target: T1, hFzd-4 (Homo sapiens, UniProt Q9ULV1); experiment: Receptor specificity: luciferase in HEK293 superTOPflash cells overexpressing hFzd-4; assay type: cell-based; conditions: UM206 1.10^−8 M
T1 construct: expressed in transfected cells; host or cells: HEK293 superTOPflash (transient, Fugene6, pcDNA3.1/hygro)
T1 sequence (Q9ULV1 37-537): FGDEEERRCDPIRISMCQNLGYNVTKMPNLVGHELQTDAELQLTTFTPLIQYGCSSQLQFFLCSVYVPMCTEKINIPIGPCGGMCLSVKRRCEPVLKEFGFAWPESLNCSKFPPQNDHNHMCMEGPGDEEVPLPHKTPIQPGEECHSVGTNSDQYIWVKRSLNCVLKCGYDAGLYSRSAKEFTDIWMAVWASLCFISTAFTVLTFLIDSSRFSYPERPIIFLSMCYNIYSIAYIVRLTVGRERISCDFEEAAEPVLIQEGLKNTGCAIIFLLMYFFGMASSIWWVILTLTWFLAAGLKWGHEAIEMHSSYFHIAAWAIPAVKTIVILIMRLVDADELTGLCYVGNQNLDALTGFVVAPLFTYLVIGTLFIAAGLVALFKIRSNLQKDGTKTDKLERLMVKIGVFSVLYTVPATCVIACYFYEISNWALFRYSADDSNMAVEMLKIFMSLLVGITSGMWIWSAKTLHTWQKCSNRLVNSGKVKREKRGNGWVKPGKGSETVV
Description: In FIG. 3, Panel E, the efficacy of UM206 to block the Wnt3a-induced activation of luciferase activity in HEK293 superTOPflash cells transfected with different Fzds is shown.
(§1) The cell lines were cultured in 75 cm^2 culture flasks (Corning, Schiphol, the Netherlands) in Dulbeco's modified essential medium with L-glutamine (2 mM), 10% fetal calf serum (Invitrogen, Merelbeke, Belgium), and 1% gentamycin (Sigma-Aldrich, Zwijndrecht, The Netherlands). Before starting the experiment, the cell lines were treated with plasmocin 25 μg/ml (Invivogen, Toulose, France) and tested with a mycoalert mycoplasma detection kit (Lonza, Rockland Me., USA). Cells were transiently transfected with Fugene6 (Roche, Indianapolis Ind., USA) with plasmid DNA, pcDNA3.1/hygro (Invitrogen) with frizzled-1/2/4 or Wnts 3a-5a or with pcDNA3.0 (Invitrogen) containing the β-catenin or frizzled-5 sequence. After transfection, the cells were cultured for 24 hours in conditioned medium, collected from the cultured L-cells, L-cells with Wnt3a or 5a (Invitrogen). At the same moment the antagonist was added.

infarct rupture = experiment: Infarct rupture in 12956 mice treated with UM206; assay type: in vivo; conditions: infarct rupture frequency ˜60%; unpublished observations
Excerpt: Because of the lack of pharmacological tools to intervene in Wnt/Fzd signaling in vivo, only genetic interventions have been reported so far in studies on the role of Wnt signaling in infarct healing. Barandon et al. were the first to show a beneficial effect of overexpression on infarct healing of FrzA, a bovine homologue of soluble frizzled-related protein-1 (sFRP1). They observed a decreased infarct size with elevated numbers of myofibroblasts and increased angiogenesis in the infarcted FrzA transgenic mice (Barandon et al., 2003), which could be confirmed in the present study using an Fzd-1 and -2 antagonist. […] In the mean time, the beneficial effects of sFRP overexpression on infarct healing have been confirmed by Kobayashi et al. (Kobayashi et al., 2009). Taken together, these reports support the observations of the present study and point to a beneficial effect of inhibiting Wnt/Fzd signaling on the wound-healing process after MI.

myocardial infarction [1] = experiment: Hemodynamic measurements (Millar catheter, left ventricle) of mice after myocardial infarction; assay type: in vivo; conditions: UM206-treated groups post-MI
Description: Cardiac function was further assessed using a Millar pressure recording catheter inserted into the left ventricle. […] These observations further underscore the beneficial effect of UM206 treatment on cardiac function post-MI.
The animals were anaesthetized with urethane ([…], i.p., Sigma-Aldrich) followed by intubation and connected to a rodent ventilator (Hugo Sachs, March-Hugstetten, Germany). Body temperature was maintained at 37° C. The mice were then allowed to stabilize prior to hemodynamic measurements. A high-fidelity catheter tip micromanometer (Mikro-tip1.4F, SPR-671; Millar Instruments, Houston Tex., USA) was inserted through the right carotid artery into the left ventricular cavity. Ventricular pressure was measured. Maximal positive and negative pressure development (+dP/dt and −dP/dt) and heart rate were determined on a beat-to-beat basis. The heart was then stimulated by an i.v. ramp-infusion of dobutamine (Sigma-Aldrich) using a micro-injection pump (Model 200 Series, KdScientific, Boston, Mass., USA).

canonical Wnt signaling = experiment: Activity assay (Example 1): TOPflash luciferase reporter in HEK (HEK293-superTOPflash) cells, receptor not specified; assay type: cell-based, human
Description: (§2) Human embryonic kidney (HEK) cells were used for screening. These cells have a luciferase construct stably transfected into the genome (see FIG. 2A), such that when the frizzled receptor is activated and β-catenin is increased, the luciferase is activated by transcription and light can be measured.
(§3) The peptides were tested by transfecting the frizzled-1 or the frizzled-2 receptor and addition of UM206(S-S) to the cell culture. For testing antagonistic activity, UM206 was added and the natural ligand Wnt3a was added, which is a natural stimulus for the canonical pathway.
Transfection and Luciferase Measurement:
Plate cells in 12-well plates
(§4) Day 2: Transfection 12-Well Plates • heat Fugene6 and DNA 15 minutes at RT • 2 ml serum-free medium in tube • add 3 μl fugene • add 2 μg DNA • incubate 30 minutes at RT • wash with PBS • add 50 μl transfectiemix • add 1 ml antibiotica-free medium
(§5) Day 3: Add Conditioned Medium or UM206
(§6) Day 4: Luciferase Activity Measurements • remove medium • wash with PBS • add 500 μl ⅕ lysisbuffer • shake for 60 minutes • centrifuge in tube • 20 μl lysaat and 50 μl luciferase in new tube for measurement • vortex • measure
(§7) Three areas of high homology that contained two cysteines are underlined (UM207), (UM208) and (UM206). In FIGS. 9B through 9D, the inhibitory effect of these three peptides on Wnt3a-induced luciferase activity in HEK293-superTOPflash is shown. […] Again, the peptides by themselves had no effect on the luciferase activity.
as §1
For the luciferase experiments not in HEK cells, the cells were additionally transfected with a TOPflash construct, eight TCF/LEF binding sites cloned into the pTA-Luc vector. Luciferase activity was measured using luciferase assay system (Promega, Madison Wis., USA).

frizzled-1 (rFzd-1) = target: T2, frizzled-1 (rFzd-1) (Rattus norvegicus, UniProt Q08463); experiment: Activity assay: luciferase reporter in HEK superTOPflash cells transfected with frizzled-1; assay type: cell-based
T2 construct: expressed in transfected cells; host or cells: HEK293 superTOPflash (transient, Fugene6, pcDNA3.1/hygro)
Description: as §2, §3, §4, §5, §6, §7
To determine the inhibitory constant of UM206-8, HEK293-superTOPflash cells were transfected with either rFzd-1 or -2 and incubated with Wnt3a (10^−9M) in the presence of increasing concentrations of either of the peptides (FIG. 15). For UM206, a biphasic inhibition curve was observed that was best fitted with a two-binding-state model.
as §1

myocardial infarction [2] = conditions: mouse, in vivo
Description: To this end, we administered UM206 subcutaneously by an osmotic minipump (6 microgram/kg/day); the control group was equipped with a saline-filled minipump. The minipumps were implanted at the time of infarct induction and lasted for up to five weeks.
Male Swiss mice were used (10-12 weeks of age, Charles River, Maastricht, The Netherlands). The animals were randomly included into the three different experimental groups. […] In the treatment study, either UM206 (6 μg/kg/day) or saline were administrated by an osmotic minipump (Alzet 2002 or 2006 for two- and five-week treatments, respectively; Alzet, Cupertino Calif., USA). MI was induced, under isofluorane anesthesia as previously described (van den Borne et al., 2009).

T2 sequence (Q08463 69-641): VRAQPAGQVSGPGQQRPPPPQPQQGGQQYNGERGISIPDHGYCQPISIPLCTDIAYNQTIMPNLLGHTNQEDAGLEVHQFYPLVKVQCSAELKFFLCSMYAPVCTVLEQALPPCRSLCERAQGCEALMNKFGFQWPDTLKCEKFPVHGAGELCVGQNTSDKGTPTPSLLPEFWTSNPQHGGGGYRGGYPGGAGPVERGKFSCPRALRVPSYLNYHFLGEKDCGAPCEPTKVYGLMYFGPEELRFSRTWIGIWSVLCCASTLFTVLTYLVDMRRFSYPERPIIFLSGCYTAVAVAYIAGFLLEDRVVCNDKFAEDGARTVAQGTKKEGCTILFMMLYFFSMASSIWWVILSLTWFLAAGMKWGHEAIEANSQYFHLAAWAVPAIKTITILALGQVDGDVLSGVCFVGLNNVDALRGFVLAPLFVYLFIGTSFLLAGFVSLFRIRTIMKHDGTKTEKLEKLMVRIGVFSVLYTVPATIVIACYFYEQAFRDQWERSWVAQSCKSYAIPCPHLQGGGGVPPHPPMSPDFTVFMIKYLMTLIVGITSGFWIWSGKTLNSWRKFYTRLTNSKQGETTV

Compound: CSCC[C@H](NC(=O)CNC(=O)[C@H](CCC(=O)O)NC(=O)[C@H](CO)NC(=O)[C@@H](NC(=O)[C@H](CCCCN)NC(=O)[C@H](CC(N)=O)NC(=O)[C@H](CS)NC(C)=O)[C@@H](C)O)C(=O)N[C@@H](CC(=O)O)C(=O)NCC(=O)N[C@@H](CS)C(=O)N[C@@H](CCC(=O)O)C(=O)N[C@@H](CC(C)C)C(N)=O [UM206, Ac-Cys-Asn-Lys-Thr-Ser-Glu-Gly-Met-Asp-Gly-Cys-Glu-Leu-NH2] (Ac-CNKTSEGMDGCEL-NH2)
- effect on Wnt3a-induced luciferase activity, frizzled-4 (hFzd-4): no effect
- number of ruptured infarcts (infarct rupture): did not reduce the number of ruptured infarcts
- positive and negative dP/dt versus saline (myocardial infarction [1]): higher positive dP/dt and a lower negative dP/dt value
- IC50 (canonical Wnt signaling): in the nanomolar range
- activity on the frizzled receptor: antagonist or agonist (canonical Wnt signaling; model of Example 1): very potent antagonist; also recorded: very potent inhibitor of the canonical Wnt signaling
- effect of the peptide by itself on luciferase activity (canonical Wnt signaling; without Wnt3a): none of the three peptides by itself could induce an increase in luciferase activity; also recorded: no effect
- % of inhibition for Fzd-1 (frizzled-1 (rFzd-1); Wnt3a-induced luciferase activity, antagonists at 1.10^−9 M): 72.15%
- block of Wnt3a-induced luciferase activity, rFzd-1 (frizzled-1 (rFzd-1); peptide 1.10^−8 M): blocked almost completely; also recorded: abolished the induction of luciferase activity almost completely
- adverse effects of chronic administration (myocardial infarction [2]): did not observe any adverse effects
- effects on other organs known to contain Fzd-2, including kidney and small intestine (myocardial infarction [2]): did not observe any effects
